As a reminder, the IC50 is the concentration that inhibits the measured activity by half.

The target of the test is T1, human PAR4 (Homo sapiens, UniProt Q96RI0).
T1 construct: expressed in transfected cells; host or cells: HEK293 PAR4 Clone 1.2A (BMS Arctic ID 383940)
T1 sequence (Q96RI0 18-385): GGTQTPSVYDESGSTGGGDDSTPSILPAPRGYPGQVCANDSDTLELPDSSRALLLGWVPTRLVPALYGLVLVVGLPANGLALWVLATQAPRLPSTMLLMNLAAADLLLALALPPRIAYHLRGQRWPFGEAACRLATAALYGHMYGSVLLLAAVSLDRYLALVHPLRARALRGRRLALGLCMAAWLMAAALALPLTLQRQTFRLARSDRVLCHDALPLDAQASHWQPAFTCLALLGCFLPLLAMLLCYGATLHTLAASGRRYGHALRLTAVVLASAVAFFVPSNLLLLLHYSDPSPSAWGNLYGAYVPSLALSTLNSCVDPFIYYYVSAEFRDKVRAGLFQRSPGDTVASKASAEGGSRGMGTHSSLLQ
In words: PAR4 FLIPR assay: antagonism of agonist-peptide-induced calcium mobilization in PAR4-expressing HEK293 cells. Format: cell-based. The note with it: H-Ala-Phe(4-F)-[…]NH2-induced intracellular calcium mobilization, 11-point curves. A general note: Calcium assays in cells follow changes in intracellular calcium, usually with a dye or a luminescent sensor.

On to `Cc1cc(-c2nc3ccc(OCCNS(=O)(=O)c4ccccc4)cc3s2)c2ncc(OC(F)F)nc2c1` [Example 63, N-(2-(2-(2-(difluoromethoxy)-7-methylquinoxalin-5-yl)benzo[d]thiazol-6-yloxy)ethyl) benzenesulfonamide], for which the IC50 came to 2.9 nM.

Take `Cc1cc(-c2nc3cccc(OCCO)c3s2)c2ncc(OC(F)F)nc2c1` [Example 74, 2-(2-(2-(difluoromethoxy)-7-methylquinoxalin-5-yl)benzo[d]thiazol-7-yloxy)ethanol]: the 50% inhibitory concentration (IC50) turned out to be 9.3 nM.

On to `COc1cnc2c(-c3nc4cc(F)c(O[C@@H](C)[C@@H](C)OC(=O)Nc5ccc(C(C)O)nc5)nc4s3)cc(C)cc2n1` (single isomer, unassigned) [Example 766], for which the concentration for half-maximal inhibition (IC50) stood at 2.9 nM.

Consider `COc1cnc2c(-c3nc4c(Cl)c(F)c(OC[C@@H](C)OC(=O)Nc5ccc(Br)nc5)cc4s3)cc(C)cc2n1` [Example 403, (R)-1-((4-chloro-5-fluoro-2-(2-methoxy-7-methylquinoxalin-5-yl)benzo[d]thiazol-6-yl)oxy)propan-2-yl (6-bromopyridin-3-yl)carbamate], for which the half-inhibitory concentration (IC50) amounted to 1.7 nM.

Take `COc1cnc2c(-c3nc4cc(F)c(O[C@@H](C)[C@@H](C)OC(=O)Nc5cccnc5)cc4s3)cc(C)cc2n1` [Example 423, (2R,3S)-3-((5-fluoro-2-(2-methoxy-7-methylquinoxalin-5-yl)benzo[d]thiazol-6-yl)oxy)butan-2-yl pyridin-3-ylcarbamate]: the half-inhibitory concentration (IC50) was 4.2 nM.

`Cc1cc(-c2nc3cccc(CO)c3s2)c2ncc(OC(F)F)nc2c1` [Example 64, (2-(2-(difluoromethoxy)-7-methylquinoxalin-5-yl)benzo[d]thiazol-7-yl)methanol]: the IC50 turned out to be 7.4 nM.

On to `COc1cc(C(O)C2(C(F)(F)F)CC2)c2nc(-c3cc(C)cc4nc(OC)cnc34)sc2c1` (centres unmarked) [Example 667, (6-methoxy-2-(2-methoxy-7-methylquinoxalin-5-yl)benzo[d]thiazol-4-yl)(1-(trifluoromethyl)cyclopropyl)methanol], for which the IC50 came to 5.6 nM.

Turning to `CNC(=O)c1ccc(NC(=O)O[C@H](C)[C@H](C)Oc2cc3sc(-c4cc(C)cc5nc(OC)cnc45)nc3cc2F)cn1` [Example 436, (2R,3S)-3-((5-fluoro-2-(2-methoxy-7-methylquinoxalin-5-yl)benzo[d]thiazol-6-yl)oxy)butan-2-yl (6-(methylcarbamoyl)pyridin-3-yl)carbamate], the half-inhibitory concentration (IC50) came out at 1.5 nM.

As for `COc1cnc2c(-c3nc4c(Cl)c(F)c(OC[C@@H](C)OC(=O)Nc5ccc6[nH]c(=O)oc6c5)cc4s3)cc(C)cc2n1` [Example 373, (R)-1-((4-chloro-5-fluoro-2-(2-methoxy-7-methylquinoxalin-5-yl)benzo[d]thiazol-6-yl)oxy)propan-2-yl (2-oxo-2,3-dihydrobenzo[d]oxazol-6-yl)carbamate], the IC50 was determined as 0.9 nM.

With `COc1cnc2c(-c3nc4cc(F)c(OCCOC(=O)Nc5ccncc5)cc4s3)cc(C)cc2n1` [Example 342, 2-((5-fluoro-2-(2-methoxy-7-methylquinoxalin-5-yl)benzo[d]thiazol-6-yl)oxy)ethyl pyridin-4-ylcarbamate], the IC50 was 11 nM.

`COc1cnc2c(-c3nc4c(Cl)c(F)c(OC[C@@H](C)OC(=O)Nc5cncnc5)cc4s3)cc(C)cc2n1` [Example 591, (R)-1-((4-chloro-5-fluoro-2-(2-methoxy-7-methylquinoxalin-5-yl)benzo[d]thiazol-6-yl)oxy)propan-2-yl pyrimidin-5-ylcarbamate]: the half-maximal inhibitory concentration (IC50) worked out at 7 nM.

As to `CNC(=O)c1cc(NC(=O)O[C@H](C)COc2cc3sc(-c4cc(C)cc5nc(OC)cnc45)nc3cc2F)ccn1` [Example 443, (R)-1-((5-fluoro-2-(2-methoxy-7-methylquinoxalin-5-yl)benzo[d]thiazol-6-yl)oxy)propan-2-yl (2-(methylcarbamoyl)pyridin-4-yl)carbamate], the IC50 stood at 0.6 nM.

In the case of `COc1cnc2c(-c3nc4cc(F)c(OC[C@@H](C)OC(=O)Nc5ccnc(CO)c5)cc4s3)cc(C)cc2n1` [Example 495, (R)-1-((5-fluoro-2-(2-methoxy-7-methylquinoxalin-5-yl)benzo[d]thiazol-6-yl)oxy)propan-2-yl (2-(hydroxymethyl)pyridin-4-yl)carbamate], the 50% inhibitory concentration (IC50) was 15 nM.

As to `COc1cnc2c(-c3nc4cc(F)c(O[C@@H](C)COC(=O)Nc5cccnc5)cc4s3)cc(C)cc2n1` [Example 345, (S)-2-((5-fluoro-2-(2-methoxy-7-methylquinoxalin-5-yl)benzo[d]thiazol-6-yl)oxy)propyl pyridin-3-ylcarbamate], the IC50 was 0.6 nM.

As to `Cc1cc(-c2nc3ccc(OCc4ccccc4)cc3s2)c2ncc(OC(F)F)nc2c1` [Example 7, 6-(benzyloxy)-2-(2-(difluoromethoxy)-7-methylquinoxalin-5-yl)benzo[d]thiazole], the IC50 amounted to 800 nM.

As to `COc1cnc2c(-c3nc4c(Cl)c(F)c(OCCCC(=O)Nc5cccnc5)cc4s3)cc(C)cc2n1` [Example 518, 4-((4-chloro-5-fluoro-2-(2-methoxy-7-methylquinoxalin-5-yl)benzo[d]thiazol-6-yl)oxy)-N-(pyridin-3-yl)butanamide], the IC50 turned out to be 13 nM.

In the case of `COc1cnc2c(-c3cc4cc(OCCNS(=O)(=O)c5ccccc5)cc(Cl)c4o3)cc(C)cc2n1` [Example 39, N-(2-((7-chloro-2-(2-methoxy-7-methylquinoxalin-5-yl)benzofuran-5-yl)oxy)ethyl)benzenesulfonamide], the half-maximal inhibitory concentration (IC50) was 10 nM.

Consider `COC(=O)c1ncc(NC(=O)O[C@H](C)COc2nc3sc(-c4cc(C)cc5nc(OC)cnc45)nc3cc2F)cn1` [Example 689, methyl (R)-5-((((1-((6-fluoro-2-(2-methoxy-7-methylquinoxalin-5-yl)thiazolo[5,4-b]pyridin-5-yl)oxy)propan-2-yl)oxy)carbonyl)amino)pyrimidine-2-carboxylate], for which the IC50 is 0.3 nM.

`COCc1cnc2c(-c3nc4c(C)cc(O)cc4s3)cc(C)cc2n1` [Example 281, 2-(2-(methoxymethyl)-7-methylquinoxalin-5-yl)-4-methylbenzo[d]thiazol-6-ol]: the IC50 stood at 3.6 nM.

Take `COc1cnc2c(-c3nc4cc(F)c(O[C@@H](C)[C@@H](C)OC(=O)Nc5ccc(CC(C)(C)O)nc5)cc4s3)cc(Cl)cc2n1` [Example 835, (2R,3S)-3-((2-(7-chloro-2-methoxyquinoxalin-5-yl)-5-fluorobenzo[d]thiazol-6-yl)oxy)butan-2-yl (6-(2-hydroxy-2-methylpropyl)pyridin-3-yl)carbamate]: the IC50 was 0.5 nM.

For the compound `COc1cnc2c(-c3nc4c(Cl)c(F)c(OCCNS(=O)(=O)c5ccccc5)cc4s3)cc(C)cc2n1` [Example 330, N-(2-((4-chloro-5-fluoro-2-(2-methoxy-7-methylquinoxalin-5-yl)benzo[d]thiazol-6-yl)oxy)ethyl)benzenesulfonamide], the IC50 turned out to be 57 nM.

`COc1cc(CCO)c2nc(-c3cc(C)cc4nc(OC)cnc34)sc2c1` [Example 641, 2-(6-methoxy-2-(2-methoxy-7-methylquinoxalin-5-yl)benzo[d]thiazol-4-yl)ethanol]: the IC50 worked out at 250 nM.

For `COc1cnc2c(-c3nc4cc(F)c(O[C@@H](C)[C@@H](C)OC(=O)Nc5cnc(OC)nc5)cc4s3)cc(C)cc2n1` [Example 407, (2R,3S)-3-((5-fluoro-2-(2-methoxy-7-methylquinoxalin-5-yl)benzo[d]thiazol-6-yl)oxy)butan-2-yl (2-methoxypyrimidin-5-yl)carbamate], the half-inhibitory concentration (IC50) was found to be 0.9 nM.

In the case of `COc1cc(C(O)C(C)(C)C)c2nc(-c3cc(C)cc4nc(OC)cnc34)sc2c1` (centres unmarked) [Example 637, 1-(6-methoxy-2-(2-methoxy-7-methylquinoxalin-5-yl)benzo[d]thiazol-4-yl)-2,2-dimethylpropan-1-ol], the concentration for half-maximal inhibition (IC50) turned out to be 2.1 nM.

On to `COc1cnc2c(-c3nc4cc(F)c(O[C@@H](C)[C@@H](C)OC(=O)Nc5cnc(N(C)S(C)(=O)=O)nc5)cc4s3)cc(C)cc2n1` [Example 607, (2R,3S)-3-((5-fluoro-2-(2-methoxy-7-methylquinoxalin-5-yl)benzo[d]thiazol-6-yl)oxy)butan-2-yl (2-(N-methylmethylsulfonamido)pyrimidin-5-yl)carbamate], for which the half-inhibitory concentration (IC50) worked out at 0.2 nM.

As to `Cc1cnc2c(-c3nc4c(C)cc(OCCNS(=O)(=O)c5ccc(F)cc5)cc4s3)cc(F)cc2n1` [Example 247, 4-fluoro-N-(2-((2-(7-fluoro-2-methylquinoxalin-5-yl)-4-methylbenzo[d]thiazol-6-yl)oxy)ethyl)benzenesulfonamide], the IC50 amounted to 19 nM.

As to `COc1cnc2c(-c3nc4c(Cl)c(F)c(OCCOC(=O)NCC(F)(F)F)cc4s3)cc(C)cc2n1` [Example 334, 2((4-chloro-5-fluoro-2-(2-methoxy-7-methylquinoxalin-5-yl)benzo[d]thiazol-6-yl)oxy)ethyl (2,2,2-trifluoroethyl)carbamate], the 50% inhibitory concentration (IC50) came out at 29 nM.

In the case of `COc1cnc2c(-c3nc4c(C)cc(OCCOC(=O)Nc5cccnc5)cc4s3)cc(C)cc2n1` [Example 111, 2-(2-(2-methoxy-7-methylquinoxalin-5-yl)-4-methylbenzo[d]thiazol-6-yloxy)ethyl pyridin-3-ylcarbamate], the IC50 amounted to 1.1 nM.

Turning to `Cc1cc(-c2nc3c(C)cc(OCCNS(=O)(=O)c4ccc(F)cc4)cc3s2)c2ncc(C(C)F)nc2c1` (centres unmarked) [Example 108, 4-fluoro N-(2-(2-(2-(1 fluoroethyl)-7-methylquinoxalin-5-yl)-4-methylbenzo[d]thiazol-6-yloxy)ethyl)benzenesulfonamide], the half-maximal inhibitory concentration (IC50) came to 1100 nM.

For the origin of these results see patent US12060347B2 (BRISTOL-MYERS SQUIBB COMPANY, priority 2016, dated 2024).
